We go through five compounds from article PMC10548421, “Anticancer Potential of Diruthenium Complexes with Bridging Hydrocarbyl Ligands from Bioactive Alkynols” (Inorganic Chemistry, 2023).

Data set [1] has as its system PC-3 human prostate carcinoma cell line. The data set can be described thus: MTT in vitro cytotoxicity, PC-3. It is filed as cell-based. The settings on record: incubation 24 h, mean ± SD. As to the method: (§1) The cytotoxicity assessment was conducted on various human cancer cell lines, including A2780 ovarian carcinoma, A2780R cisplatin-resistant ovarian carcinoma, MCF-7 breast, HOS osteosarcoma, A549 epithelial lung, PANC-1 pancreatic, Caco-2 colorectal, PC-3 prostate adenocarcinoma, and HeLa cervical cell lines. Additionally, the assessment extended to a normal human fetal fibroblast cell line (MRC-5). Cells were obtained from ATCC collection and cultivated according to the producer’s instructions. Stock solutions of the compounds were prepared in DMF immediately before application, and diluted with H2O to achieve the final concentration of 0.1% v/v DMF.[99] The culture media were enriched with 10% fetal calf serum. Subsequently, the cells were exposed to the tested compounds, vehicle (0.1% v/v DMF) and Triton X-100 (1% v/v), during incubation. The conventional MTT assay was carried out following different incubation periods (Tables 5-6). The absorbance was measured at 570 nm by using a spectrophotometer (Infinite M200, Schoeller Instruments, Prague, Czech Republic). The obtained data are presented as the percentage of cell viability with 100% representing negative control treatment (0.1% v/v DMF) and 0% representing the positive control (Triton X-100). The half-maximal inhibitory concentrations (IC50) were determined from dose–response curves using GraphPad Prism 6 software (GraphPad Software, San Diego, USA).

Data set [2] relates to HOS human osteosarcoma cell line. Briefly: MTT in vitro cytotoxicity, HOS. The class given is cell-based. The settings on record: incubation 24 h, mean ± SD. As to the method: as §1
Data set [3] deals with HeLa human cervical carcinoma cell line. The data set can be described thus: MTT in vitro cytotoxicity, HeLa. The class given is cell-based. The conditions noted are these: incubation 24 h, mean ± SD. As to the method:
as §1

The nature of data set [4]: Stability in DMEM/CH3OH solution (UV–vis). It is filed as physicochemical. The settings on record: ca. 5:1 v/v. As to the method:
(§2) […] The percentage of remaining complex in the solution was calculated by considering the change in absorbance at the characteristic wavelength. The identical procedure was employed to evaluate stability in MeOH and DMEM (about 1:5 v/v) solutions. DMEM stands for the cell culture medium (containing 1000 mg/L glucose and L-glutamine, excluding sodium bicarbonate and phenol red; reference D2902-Merck).

Data set [5] deals with Caco-2 human colorectal adenocarcinoma cell line. Briefly: MTT in vitro cytotoxicity, Caco-2. The settings on record: for IC50: incubation 24 h, mean ± SD. It is filed as cell-based. As to the method:
as §1, with “Additionally,” for “The cytotoxicity assessment was conducted on various human cancer cell lines, including A2780 ovarian carcinoma, A2780R cisplatin-resistant ovarian carcinoma, MCF-7 breast, HOS osteosarcoma, A549 epithelial lung, PANC-1 pancreatic, Caco-2 colorectal, PC-3 prostate adenocarcinoma, and HeLa cervical cell lines. Additionally,”

For data set [6], the system named is MCF-7 breast adenocarcinoma cell line. Briefly: MTT in vitro cytotoxicity, MCF-7. The conditions noted are these: incubation 24 h, mean ± SD. It is filed as cell-based, human. As to the method: as §1
Data set [7] concerns A549 human lung adenocarcinoma cell line. Briefly: MTT in vitro cytotoxicity, A549. The class given is cell-based. The settings on record: for IC50: incubation 24 h, mean ± SD. As to the method: as §1
For data set [8], the system named is A2780 human ovarian carcinoma cell line. Briefly: MTT in vitro cytotoxicity, A2780. It is filed as cell-based. The procedure: as §1
Data set [9] is described as follows: Stability in H2O/CH3OH solution (UV–vis). The class given is physicochemical. The settings on record: ca. 5:1 v/v. As to the method:
as §2

Data set [10] can be described thus: Octanol/water partition coefficient, shake-flask with UV–vis. The settings on record: 21 °C. The class given is physicochemical. The procedure:
Partition coefficients (Pow), defined by the formula Pow = corg/caq, wherein corg and caq denote the molar concentrations of the specific compound in octanol and aqueous phases, respectively, were obtained using the shake-flask method with UV–vis measurements, following a previously described procedure (Table 3).[98] All the operations were carried out at 21 ± 1 °C. The wavelength corresponding to the maximum absorption of each compound within the range 350–430 nm was employed for quantifying using UV–vis techniques.

For data set [11], the system named is MRC-5 normal human lung fibroblast cell line. The data set can be described thus: MTT in vitro cytotoxicity, MRC-5 (selectivity). The class given is cell-based. The settings on record: normal cells, MTT, incubation 24 h, mean ± SD. The procedure: as §1
The subject of data set [12] is PANC-1 human pancreatic carcinoma cell line. The data set can be described thus: MTT in vitro cytotoxicity, PANC-1. The class given is cell-based. The conditions noted are these: for IC50: incubation 24 h, mean ± SD. The procedure: as §1
Data set [13] has as its system A2780R cisplatin-resistant human ovarian carcinoma cell line. The data set can be described thus: MTT in vitro cytotoxicity, A2780R. The class given is cell-based. The conditions noted are these: incubation 24 h, mean ± SD. The procedure:
as §1

Data set [14] in a line: Cyclic voltammetry in CH2Cl2/[N^nBu4]PF6. It is filed as physicochemical. The settings on record: CH2Cl2/[N^nBu4]PF6 0.2 M. As to the method:
Cyclic voltammetry measurements were conducted by using a PalmSens4 instrument connected to a computer operating with the PSTrace5 electrochemical software. Prior to use, anhydrous CH2Cl2 (Merck) was stored under argon over 3 Å molecular sieves. Both [N^nBu4]PF6 (electrochemical grade) and FeCp2, obtained from Fluka, were utilized without requiring additional purification. Cyclic voltammetries were carried out under argon by utilizing a 0.2 M solution of [N^nBu4]PF6 in CH2Cl2 as the supporting electrolyte. The working electrode and the counter electrode were comprised of a platinum disk and a platinum gauze, respectively, both enclosed within a glass tube. A leakage-free miniature electrode of Ag/AgCl/KCl (from eDAQ) was employed as a reference. The three-electrode designed cell was subjected to predrying via vacuum heating and then filled with argon gas. The Schlenk-type design of the cell was effective in upholding both anhydrous and anaerobic conditions. Subsequently, a solution of supporting electrolyte, prepared under argon, was introduced into the cell, and the CV of the solvent was acquired. Afterward, the analyte was introduced, and voltammograms were recorded. Under the selected experimental conditions, the one-electron oxidation of ferrocene occurred at a standard potential of E° = +0.45 V relative to Ag/AgCl/KCl.

Where [15] appears, read: MTT, incubation 24 h, mean ± SD (Table 5), read-out: IC50 A2780.
[16] abbreviates: time-course experiment (Table 6), 24 h, mean ± SD, read-out: IC50 A2780, incubation time 24 h.
The mark [17] stands for this setting: time-course experiment (Table 6), 48 h, mean ± SD, read-out: IC50 A2780, incubation time 48 h.
The mark [18] stands for this setting: time-course experiment (Table 6), 72 h, mean ± SD, read-out: IC50 A2780, incubation time 72 h.
The mark [19] stands for this setting: vs Ag/AgCl/KCl, peak potential of irreversible process.

Read-outs that look alike come from different tables or passages of the source.

On to `CC12CCC3C(CCC4=CC(=O)CCC43C)C1CCC2=C=[CH][Ru]1(=[C]=O)([CH]2C=CC=C2)[C](=O)[Ru+]1(=[C]=O)[CH]1C=CC=C1.F[B-](F)(F)F` (mixture of isomers) [3c, [Ru2Cp2(CO)3{μ–η^1:η^2-CH=C=(testosteronylidene)}]BF4], for which the IC50 is 19.6 ± 3.7 µM in data set [1]; 17.7 ± 2.8 µM in data set [2]; 16.3 ± 1.3 µM in data set [3]; 42.8 ± 0.8 µM in data set [5]; 22 ± 4 µM in [6]; 20.7 ± 1.4 µM in data set [7]. For the same compound, the half-maximal inhibitory concentration (IC50) in [8] (setting [15]) is 6.3 ± 1.3 µM; in data set [8] (setting [16]), 4.7 ± 1 µM; in [8] (setting [17]), 5.1 ± 0.7 µM; in [8] (setting [18]) it was 6.8 ± 1.3 µM; in [11], 21.5 ± 4 µM; in data set [12] it was 30 ± 0.6 µM. This compound yielded an IC50 in [13] of 11.7 ± 2.4 µM. Besides, the “residual complex % in DMEM/CH3OH” value in data set [4] (2 h) was 89%; in data set [4] (18 h), 67%. Also, the “residual complex % in H2O/CH3OH” value in data set [9] (2 h) is on record as 94%; in data set [9] (18 h), 73%. Besides, in [10], the “Log Pow” value is given as 0.89 ± 0.12.
As for `O=[C]=[Ru]12([CH]3C=CC=C3)[CH]=C(C3(O)CCCC3)[C](=O)[Ru]1([CH]1C=CC=C1)[C]2=O` (stereo not shown) [2a, [Ru2Cp2(CO)2{μ–η^1:η^3-CH=C(1-cyclopentanol)C(=O)}]], the “Formal electrode potential, oxidation” value is “+0.55 V” in data set [14] (setting [19]) and “+0.11 V” in [14] (vs FeCp2 (in parentheses)). Also, the “Formal electrode potential, reduction” value was “–1.82 V” in [14] (setting [19]) and −2.26 V in data set [14] (vs FeCp2 (in parentheses)). Further, the figures for the “residual complex % in H2O/CH3OH” value in data set [9] (30 min), in [9] (2 h) and in data set [9] (18 h) were 97%, 91% and 23%, respectively. The “Log Pow” value in [10] is given as over 1.5.
With `CC12CCC(=O)C=C1CCC1C2CCC2(C)C1CCC2(O)C1=[CH][Ru]2(=[C]=O)([CH]3C=CC=C3)[C](=O)[Ru]2([CH]2C=CC=C2)[C]1=O` (stereo not shown) [2c, [Ru2Cp2(CO)2{μ–η^1:η^3-CHC(17-testosterone)C(O)}]], the entries for the “residual complex % in H2O/CH3OH” value in [9] (30 min), in data set [9] (2 h) and in data set [9] (18 h) were 99%, 81% and 14%, respectively. Also, the “Log Pow” value in data set [10] was over 1.5.
On to `Cc1ccc(C(C)C)cc1.[Cl][Ru]([Cl])[PH]12CN3CN(CN(C3)C1)C2` [RAPTA-C, [Ru(η^6-p-cymene)Cl2(pta)], reference compound], for which the concentration for half-maximal inhibition (IC50) in data set [1], in data set [2], in data set [3], in [5], in data set [6] and in data set [7] was over 50 µM throughout. Moreover, the IC50 in [8] (setting [15]), in data set [8] (setting [16]), in data set [8] (setting [17]), in [8] (setting [18]), in [11] and in data set [12] was over 50 µM each time. For the same compound, the IC50 in [13] was over 50 µM.
On to “[Ru2Cp2(CO)2{μ–η^1:η^3-CH=C(17α-estradiol)C(=O)}] [2b]”, for which the IC50 was 36 ± 4.1 µM in data set [1]; 24 ± 3.8 µM in data set [2]; 5.5 ± 0.9 µM in data set [3]; over 50 µM in data set [5]; 19 ± 4.5 µM in data set [6]; over 50 µM in [7]. The IC50 in [8] (setting [15]) is 6.2 ± 1.2 µM; in [8] (setting [16]), 5.8 ± 0.4 µM; in [8] (setting [17]), 4.7 ± 0.8 µM; in data set [8] (setting [18]) it was 4.2 ± 0.6 µM; in [11], over 50 µM; in [12] it was over 50 µM. Moreover, half-maximal inhibition in data set [13] (IC50) was put at 7.3 ± 2.4 µM. Also, the entries for the “residual complex % in DMEM/CH3OH” value in data set [4] (2 h) and in [4] (18 h) were 50% and 21%, respectively. The “activity toward Caco-2 cells (in words)” value in [5] (24 h) is “inactive”. Further, the “activity toward A549 cells (in words)” value in data set [7] (24 h) was “inactive”. The “residual complex % in H2O/CH3OH” value turned out to be 69% in [9] (30 min) and 0% in [9] (18 h). The “Log Pow” value in data set [10] is listed as over 1.5. In addition, the “activity toward PANC-1 cells (in words)” value in [12] (24 h) is “inactive”.

A word on the IC50: it is the point on the concentration scale where inhibition reaches its midpoint.
